Results published in ChEMBL document CHEMBL5154849, “Overcoming undesirable hERG affinity by incorporating fluorine atoms: A case of MAO-B inhibitors derived from 1 H-pyrrolo-[3,2-c]quinolines” (Eur J Med Chem, 2022).

Experiment: in vitro
Conditions: rat, liver microsomes

SMILES: COc1cccc(Cn2ccc3c(N4CCC(F)(F)CC4)nc4ccccc4c32)c1
- CLint scaled at 10 µM: 43 mL/min/kg
